According to patent US20220023450A1, “BONE MARROW-, RETICULOE[…]-, AND/OR LYMPH NODE-TARGETED RA[…] AND METHODS OF THEIR DIAGNOSTIC AND […] USE” (Memorial Sloan Kettering Cancer Center, priority 2018, published 2022):
Like-named read-outs stand apart in the source and are kept apart here.

Experiments:
MDA-MB-468 tumor = assay: Focal radiation therapy of tumor after GT3 administration; type: in vivo; settings: 10 mg/kg GT3 prior to 11 Gy focal irradiation
Excerpt: Though GT3 accumulation in the tumor is moderate, there is possibility that GT3 in the tumor might protect tumor during radiation therapy. On the contrary, there are several reports that tocotrienols suppress the proliferation of a wide variety of tumor cells in culture, such as MDA-MB-435, MCF-7, PC-3, LnCaP and DLD-1. Animal studies also have been shown that tocotrienol suppresses the growth of tumors such as 7,12-dimethylbenz(a)anthracene induced mammary tumor, HepG2, and PC-3. To address the question that GT3 protects tumors from irradiation, focal radiation therapy was performed to evaluate the effect of GT3 in the tumor when 10 mg/kg GT3 was administered prior to 11 Gy focal irradiation.

[1] = system: peripheral blood cells (WBC, lymphocytes, platelets); assay: Blood cell recovery after sub-lethal total body irradiation (4 Gy); type: in vivo, C57/BL6 mice
Experimental: GT3-Lipo treated 24 h before TBI, GT3-Lipo treated 24 h after TBI, BMT only and no treatment.
FIGS. 3A and 3B a plot of complete blood count (CBC) data showing white blood cell (WBC) recovery after total body irradiation (TBI) (4 Gy) (FIG. 3A), and a plot of lymphocyte recovery after TBI (4 Gy) (FIG. 3B). C57BL6 mice were divided into 4 groups (5 mice per group). (Filled circle) GT3-Lipo treated 24 h before TBI. (Open square) BMT-Lipo treated 24 h before TBI. (Filled square) GT3-Lipo treated 24 h after TBI. (Open circle) No treatment. 10 mg/kg/mice GT3 were treated via i.v. and blood was collected by retro-orbital bleeding on day 0, 1, 4, 7, 14, 21, 43, 57 and 99.
White blood cells (WBC), lymphocytes, and neutrophils decreased to less than 10% of baseline counts with a nadir at day 1-4, post irradiation. […] Recovery of GT3 treated groups reached 100% at day 43. For the untreated group, WBC and lymphocyte counts recovered about 60% at day 43 and WBC and lymphocyte counts never recovered to normal level until day 99. Neutrophil counts decreased to nadir on day 4 for GT3 treated and untreated groups. […] recovered on day 7 and remained relatively the same counts until day 99. Platelet counts increased on day 1 and decreased to nadir on day 14. Platelet counts were recovered to normal level at day 43 and remained the same level until day 99 in all groups.
6- to 8-week-old C57/BL6 mice (Jackson Lab., Bar Harbor, Me.) were used for bone marrow protection from total body irradiation studies. 10 mg/kg GT3 liposomes (6% mol) were administered via i.v. 24 h pre- and post-total body irradiation (4 Gy, […], dose rate=82 cGy/min). No supportive care was given to mice after irradiation. Approximately 100 μL of blood was collected by retro-orbital blood collection for complete blood cell counts at various time points for 100 days.

[2] = C57/BL6, mouse, in vivo
Experimental: Mice were sacrificed at the indicated time and major organs were collected and weighed. ^64Cu counting was done as soon as the organs were collected and ^3H counting was measured 5 days after mice were sacrificed. The % ID/g was calculated by measuring weight and time corrected measurement of radioactivity. n=5 per group.
For biodistribution studies, approximately 5.5 MBg of [^64Cu]-DOTA-Bz-DSPE-labeled liposome and 370 kBq of ^3H-GT3 incorporated liposome was intravenously administered to C57/BL6 athymic nude mice (n=5 per group) via tail vein injection. Mice were sacrificed at 24 or 48 h after injection and major organs were collected and placed in pre-weighed culture tubes or Eppendorf tubes. To collect bone marrow, the femur was dipped into liquid nitrogen and one of the epiphyses was carefully removed. A 30 mL syringe with gauge 30½ needles was inserted into one end of the femur; air was blown and bone marrow was collected in the same tubes for radioactivity counting in a gamma counter (PerkinElmer, Inc., Waltham, Mass.). For ^3H activity measurement, major organs were collected in pre-weighed scintillation vials and 500 uL of Soluene®-350 were added. After overnight incubation at 37° C., 4.5 mL of Ecoscint A were added, mixed well, and counted in scintillation counter. Data were presented as percent injected dose per gram (% ID/g) of tissue.

Compound	effect on tumor response to focal radiation (MDA-MB-468 tumor)	platelet counts compared with untreated group ([1]; 4 Gy TBI)	recovery of WBC and lymphocytes compared with untreated group ([1]; 4 Gy TBI, 10 mg/kg GT3 liposomes i.v. 24 h before or after TBI)	recovery of WBC and lymphocyte counts ([1]; day 43 after 4 Gy TBI, 10 mg/kg GT3 liposomes i.v.) [%]	loss of active drug during the tissue targeting process [2]	Biodistribution, Marrow ([2]; 24 h) [% ID/g]	Biodistribution, Spleen ([2]; 24 h) [% ID/g]	Biodistribution, Marrow ([2]; 48 h) [% ID/g]	Biodistribution, Spleen ([2]; 48 h) [% ID/g]
CC(C)=CCC/C(C)=C/CC/C(C)=C/CC[C@]1(C)CCc2cc(O)c(C)c(C)c2O1 [GT3, (2R)-2,7,8-trimethyl-2-[(3E,7E)-4,8,12-trimethyltrideca-3,7,11-trienyl]-3,4-dihydrochromen-6-ol]	does not protect nor sensitize	no significant differences	faster and more complete	100	–	–	–	–	–
CC(C)=CCC/C(C)=C/CC/C(C)=C/CC[C@]1(C)CCc2cc(O)c(C)c(C)c2O1 [[^3H]-GT3]	–	–	–	–	approximately 50%	4.28±1.57	7.95±1.63	7.44±2.81	8.26±1.86
